The record followed here is patent publication US4322540A, “Substituted 4,5,6,7-tetrahydro-1H (or 2H)-indazoles” (Eli Lilly and Company, priority 1981, dated 1982).

Counter-ions that a name gives are not always drawn.

Data set [1] has as its system nigro-neostriatal-lesioned rats. Description: Turning behavior in 6-hydroxy-dopamine-lesioned rats (dopamine agonist activity). Format: in vivo, rat. The conditions noted are these: intraperitoneal; for Percent of rats exhibiting turning behavior: 15-minute period after latency; for Number of turns (average): counted over 15-minute period. How it is done:
In this test, nigro-neostriatal-lesioned rats, prepared by the procedure of Ungerstedt and Arbuthnott, Brain Res, 24, 485 (1970) are employed. A compound having dopamine agonist activity, upon injection, causes the rats to turn in circles contralateral to the side of the lesion. After a latency period, which varies from compound to compound, the number of turns is counted over a 15-minute period. The compounds are dissolved in water and the resulting aqueous solution injected into the rat by the intraperitioneal route at a series of dose levels.

The test system of data set [2] is prolactin. The experiment in a line: Inhibition of prolactin secretion in reserpine-treated rats. Format: in vivo, adult male rats of the Sprague-Dawley strain. The conditions noted are these: intraperitoneal, serum one hour after treatment, reserpine-treated male rats. The procedure:
The compounds of this invention are also useful as prolactin inhibitors and as such can be employed in the treatment of inappropriate lactation, such as postpartum lactation and galactorrhea.
Adult male rats of the Sprague-Dawley strain weighing about 200 g. were housed in an air-conditioned room with controlled lighting (lights on 6 a.m.-8 p.m.) and fed lab chow and water ad libitum. Each rat received an intraperitioneal injection of 2.0 mg. of reserpine in aqueous suspension 18 hours before administration of the indazole. The purpose of the reserpine was to keep prolactin levels uniformly elevated. The compounds under test were dissolved in water and were injected intraperitioneally at doses ranging from 5 mg/kg down to […]. Each compound was administered at each dose level to a group of 10 rats, and a control group of 10 intact males received an equivalent amount of solvent. One hour after treatment all rats were killed by decapitation, and 150 μl aliquots of serum were assayed for prolactin.
The difference between the prolactin level of the treated rats and prolactin level of the control rats divided by the prolactin level of the control rats gives the percent inhibition of prolactin secretion attributable to the compounds of this invention. In the table, column 1 gives the name of the compound; and columns 2-4 the percent prolactin inhibition at the given dose level.

Data set [3] relates to mouse. Description: Acute toxicity (LD50) by the intraperitoneal route in the mouse. Format: in vivo. The procedure:
In using the compounds of this invention to inhibit prolactin secretion or to treat Parkinson's syndrome or for other pharmacologic action, a compound according to Formulas I and II above, or a salt thereof with a pharmaceutically-acceptable acid, is administered to a subject suffering from Parkinsonism, or in need of having their prolactin level reduced, in an amount effective to alleviate some of the symptoms of Parkinsonism or to reduce an elevated prolactin level. Oral administration is preferred. If parenteral administration is used, the injection is preferably by the subcutaneous route using an appropriate pharmaceutical formulation. […] In particular, with intravenous or intramuscular administration, a water soluble pharmaceutically-acceptable salt is employed. For oral administration, a compound according to Formulas I and II either as the free base or in the form of a salt thereof can also be mixed with standard pharmaceutical excipients and loaded into empty telescoping gelatin capsules or pressed into tablets. The oral dosage should be in the range 0.01-10 mg/kg of mammalian body weight and the parenteral dose in the range 0.0025 to 2.5 mg/kg. The LD50 of dl-5-di(n-propyl)amino-4,5,6,7-tetrahydro-1H(and 2H)-indazole dihydrochloride is between 100 and 300 mg/kg by the intraperitoneal route in the mouse.

In the case of `NC1CCc2[nH]ncc2C1` (racemic) [dl-5-Amino-4,5,6,7-tetrahydro-1H-indazole dihydrochloride and dl-5-amino-4,5,6,7-tetrahydro-2H-indazole dihydrochloride], in data set [1] (1 mg/kg), the “Percent of rats exhibiting turning behavior” value came out at 33% and the “Number of turns (average)” value came out at 7 turns.

As to `CN(C)C1CCc2[nH]ncc2C1` (racemic) [dl-5-Dimethylamino-4,5,6,7-tetrahydro-1H-indazole dihydrochloride and dl-5-dimethylamino-4,5,6,7-tetrahydro-2H-indazole dihydrochloride], the “Percent of rats exhibiting turning behavior” value in data set [1] (1 mg/kg) was 33%. Moreover, the “Number of turns (average)” value in data set [1] (1 mg/kg) was found to be 5 turns. Moreover, the entries for the “Percent Inhibition of Prolactin” value in data set [2] (5 mg/kg), in data set [2] (50 mcg/kg) and in data set [2] (500 mcg/kg) were 73%, 31% and 30%, respectively.

With `CCCN(CCC)C1CCc2n[nH]cc2C1` (racemic) [dl-5-di(n-propyl)amino-4,5,6,7-tetrahydro-1H(and 2H)-indazole dihydrochloride], the “Percent of rats exhibiting turning behavior” value stood at 67% in data set [1] (1 mg/kg) and 33% in data set [1] (100 mcg/kg). Moreover, the results for the “Number of turns (average)” value in data set [1] (1 mg/kg) and in data set [1] (100 mcg/kg) were 48 turns and 6 turns, respectively. The “Percent Inhibition of Prolactin” value in data set [2] (5 mg/kg) was determined as 94%; in data set [2] (50 mcg/kg), 1%; in data set [2] (500 mcg/kg) it was 66%. The Lethality entry in data set [3] (10 mg/kg) and in data set [3] (30 mg/kg) was “not fatal” throughout. The Side effects entry in data set [3] (30 mg/kg) was “produces some undesirable side effects”.

Turning to `CCCN(CCC)C1CCc2cn[nH]c2C1` (racemic) [dl-6-di-(n-propyl)amino-4,5,6,7-tetrahydro-1H(and 2H)-indazole dihydrochloride], the “Percent of rats exhibiting turning behavior” value in data set [1] (1 mg/kg) came to 100%; in data set [1] (100 mcg/kg), 0%; in data set [1] (250 mcg/kg) it was 50%. Moreover, the figures for the “Number of turns (average)” value in data set [1] (1 mg/kg) and in data set [1] (250 mcg/kg) were 98 turns and 30 turns, respectively. Moreover, the “Percent Inhibition of Prolactin” value in data set [2] (50 mcg/kg) is reported as 31%.
